The test system of test [1] is thoracic aorta of Wistar rats. The test can be described thus: Endothelium-dependent vasodilator response of aorta ring from L-NAME-treated rats (Magnus apparatus). The format is in vivo, rat. As to the method:
Wistar rats (7 weeks of age, male) as the test animals were acclimatized for one week. A nitric oxide synthesis inhibitor, NG-nitro-L-arginine methyl ester hydrochloride (L-NAME, manufactured by SIGMA-ALDRICH CORP.) was dissolved in drinking water at the concentration of 1 g/L, and similarly, L-NAME and Val-Pro-Pro synthesized above at 1 g/L and 0.3 g/L, respectively, and L-NAME and Ile-Pro-Pro synthesized above at 1 g/L and 0.3 g/L, respectively. The rats were allowed free access to the prepared drinking water for one week. As a control, only the drinking water without L-NAME dissolved therein was given to a non-treatment group.
Then, the rats were subjected to fatal exsanguination under diethyl ether anesthesia. The thoracic aorta was taken out, cut into 2 mm long, and made into an aorta ring. The ring was set in a Magnus apparatus (product name “micro tissue organ bath MTOB-1Z”, manufactured by LABO SUPPORT CO., LTD.) filled with 5 ml of Tyrode's solution (composition: 158.3 mM of NaCl, 4.0 mM of KCl, 2.0 mM of CaCl2, […] of MaCl2, 0.42 mM of NaH2PO4, 10.0 mM of NaHCO3, and 5.6 mM of glucose; pH 7.4, 37±0.5° C.), and allowed to equilibrate with the resting tension of 2.0 g. The aorta ring was then allowed to constrict with 1 μM of phenylephrine. […] The degree of vasodilation by the response was determined as a ratio to the constriction with 1 μM of phenylephrine. […]

The subject of the next test is arteriosclerosis. The settings on record: Non-patent Publication 5; cited from earlier work.

As to `CCOC(=O)[C@H](CCc1ccccc1)N[C@@H](C)C(=O)N1CCC[C@H]1C(=O)O` [enalapril], the Degree of vasodilation in test [1] (drinking water for one week: L-NAME 1 g/L, peptide 0.3 g/L, enalapril 0.5 mg/L, 10 μM acetylcholine, ratio to constriction with 1 μM phenylephrine, group average) came out at 31.6%. Besides, in test [1] (given together with L-NAME), the “degree of vasodilation compared to the group given only L-NAME” value is on record as “no significant difference”. Also, the arteriosclerosis inhibitory effect result with arteriosclerosis is recorded as “does not result in an arteriosclerosis inhibitory effect”.

Values taken from patent US20090299036A1, “AGENT FOR PREVENTING ARTERIOSCLEROSIS, AGENT FOR SUPPRESSING VASCULAR INTIMAL THICKENING AND AGENT FOR IMPROVING VASCULAR ENDOTHELIAL FUNCTION” (Calpis Co, Ltd, priority 2006, published 2009).
